Laboratory results as given in patent publication US4015974A, “Amido phosphorothiolates” (priority 1972, dated 1977).

Legend:
Format in all cases: in vivo
[1] = system: barnyard grass (Echinochloa crus-galli); assay: Pre-emergence application, herbicidal effect on barnyard grass (Table 1); parameters: key: 0: not damaged; 5: completely killed; conditions: 20 days after application, score 0-5
Text: (§1) Seeds of barnyard grass (Echinochloa crus-galli) and large crabgrass (Digitaria sanguinalis) as representatives of grassy weeds and those of radish, redroot pigweed (Amaranthus retroflexus), common purslane (Portulaca oleracea) and common lambsquarter (Chenopodium album) as representatives of broad-leaved weeds were individually sowed in flower pots of about 10 cm. in diameter. After covering the seeds with soil, test compounds as shown in Table 1 were individually applied to the soil treatment. Thereafter the plants were grown in a green house and 20 days after application the herbicidal effects of the compounds were observed, the results of which are as shown in Table 1.
(§2) Herbicidal effects were evaluated by the numerals ranging from 0 (not damaged) to 5 (completely killed). All the test compounds were used in the form of wettable powder and diluted with water before application.

[2] = system: broad-leaved weeds, e.g., monochoria, false pimpernel and toothcup; assay: Water application, herbicidal effect on broad-leaved weeds (Table 2); parameters: key: 0: not damaged; 5: completely killed; conditions: 25 days, score 0-5
Text: (§3) Wagner pots of 14 cm. in diameter, which had been packed with 1.5 kg. of paddy field soil, were brought into the state of paddy fields. To the pots were transplanted rice seedlings at the 3-leave stage. Further, seeds of barnyard grass (Echinochloa crus-galli) were sowed in the pots and required amounts of test compounds were applied to the soil under water lodged condition. 25 days after application, the degrees of herbicidal activity and phytotoxity were investigated on above-mentioned plants which had been transplanted and sowed, and on broad-leaved weeds, e.g., monochoria (Monochoria viaginalis Presl.), false pimpernel (Linderna pyxidaria) and toothcup (Rotala indica Koehue), which had been spontaneously germinated. The test compounds were used in the form of wettable powder. The herbicidal effects and the phytotoxity were evaluated as follows by the numerals ranging from 0 to 5.

[3] = system: rice; assay: Water application, phytotoxicity on rice (Table 2); parameters: key: 0: no effect; 1: very slightly affected; 2: slightly affected; 3: moderately affected; 4: considerably affected; 5: completely killed; conditions: 25 days, score 0-5
Text: as §3

[4] = system: large crabgrass (Digitaria sanguinalis); assay: Pre-emergence application, herbicidal effect on large crabgrass (Table 1); parameters: key: 0: not damaged; 5: completely killed; conditions: 20 days after application, score 0-5
Text: as §1, §2

[5] = system: barnyard grass (Echinochloa crus-galli); assay: Water application, herbicidal effect on barnyard grass (Table 2); parameters: key: 0: not damaged; 5: completely killed; conditions: 25 days, score 0-5
Text: as §3

[6] = system: redroot pigweed (Amaranthus retroflexus); assay: Pre-emergence application, herbicidal effect on redroot pigweed (Table 1); parameters: key: 0: not damaged; 5: completely killed; conditions: 20 days after application, score 0-5
Text: as §1, §2

[7] = system: radish; assay: Pre-emergence application, herbicidal effect on radish (Table 1); parameters: key: 0: not damaged; 5: completely killed; conditions: 20 days after application, score 0-5
Text: as §1, §2

[8] = system: common lambsquarter (Chenopodium album); assay: Pre-emergence application, herbicidal effect on common lambsquarter (Table 1); parameters: key: 0: not damaged; 5: completely killed; conditions: 20 days after application, score 0-5
Text: as §1, §2

[9] = system: common purslane (Portulaca oleracea); assay: Pre-emergence application, herbicidal effect on common purslane (Table 1); parameters: key: 0: not damaged; 5: completely killed; conditions: 20 days after application, score 0-5
Text: as §1, §2

Structure (SMILES) | Herbicidal effect, barnyard grass ([1]; 10 g./a.) | Herbicidal effect, barnyard grass ([1]; 20 g./a.) | Herbicidal effect, barnyard grass ([1]; 40 g./a.) | Herbicidal effects, broad-leaved weeds ([2]; 10 g/a) | Herbicidal effects, broad-leaved weeds ([2]; 20 g/a) | Herbicidal effects, broad-leaved weeds ([2]; 40 g/a) | Phytotoxicity on rice ([3]; 10 g/a) | Phytotoxicity on rice ([3]; 20 g/a) | Phytotoxicity on rice ([3]; 40 g/a) | Herbicidal effect, large crabgrass ([4]; 10 g./a.) | Herbicidal effect, large crabgrass ([4]; 20 g./a.) | Herbicidal effect, large crabgrass ([4]; 40 g./a.) | Herbicidal effects, barnyard grass ([5]; 10 g/a) | Herbicidal effects, barnyard grass ([5]; 20 g/a) | Herbicidal effects, barnyard grass ([5]; 40 g/a) | Herbicidal effect, redroot pigweed ([6]; 10 g./a.) | Herbicidal effect, redroot pigweed ([6]; 20 g./a.) | Herbicidal effect, redroot pigweed ([6]; 40 g./a.) | Herbicidal effect, radish ([7]; 10 g./a.) | Herbicidal effect, radish ([7]; 20 g./a.) | other results
CCCCOP(=O)(SCCCC)SCC(=O)N1CCCCC1CC (stereo not drawn) [Compound 95] | 4 | 5 | 5 | 5 | 5 | 5 | 0 | 0 | 0 | 4 | 5 | 5 | 5 | 5 | 5 | 2 | 3 | 3 | 0 | 0 | Herbicidal effect, radish ([7]; 40 g./a.): 0; Herbicidal effect, common lambsquarter ([8]; 10 g./a.): 2; Herbicidal effect, common lambsquarter ([8]; 20 g./a.): 3; Herbicidal effect, common lambsquarter ([8]; 40 g./a.): 4; Herbicidal effect, common purslane ([9]; 10 g./a.): 2; Herbicidal effect, common purslane ([9]; 20 g./a.): 3; Herbicidal effect, common purslane ([9]; 40 g./a.): 3
CCCCOP(=O)(SCC(=O)N1CCCCC1CC)SCC(C)C (stereo not drawn) [Compound 97] | 4 | 5 | 5 | 5 | 5 | 5 | 0 | 0 | 0 | 4 | 5 | 5 | 5 | 5 | 5 | 3 | 4 | 5 | 0 | 0 | Herbicidal effect, radish ([7]; 40 g./a.): 0; Herbicidal effect, common lambsquarter ([8]; 10 g./a.): 3; Herbicidal effect, common lambsquarter ([8]; 20 g./a.): 4; Herbicidal effect, common lambsquarter ([8]; 40 g./a.): 5; Herbicidal effect, common purslane ([9]; 10 g./a.): 4; Herbicidal effect, common purslane ([9]; 20 g./a.): 4; Herbicidal effect, common purslane ([9]; 40 g./a.): 5
CCOP(=O)(SCC)SCC(=O)N1CCCCC1CC (stereo not drawn) [Compound 75] | 5 | 5 | 5 | 5 | 5 | 5 | 0 | 0 | 1 | 5 | 5 | 5 | 5 | 5 | 5 | 5 | 5 | 5 | 0 | 1 | Herbicidal effect, radish ([7]; 40 g./a.): 2; Herbicidal effect, common lambsquarter ([8]; 10 g./a.): 5; Herbicidal effect, common lambsquarter ([8]; 20 g./a.): 5; Herbicidal effect, common lambsquarter ([8]; 40 g./a.): 5; Herbicidal effect, common purslane ([9]; 10 g./a.): 5; Herbicidal effect, common purslane ([9]; 20 g./a.): 5; Herbicidal effect, common purslane ([9]; 40 g./a.): 5
